The numbers were not newly measured in patent publication US6497890B2, “Anti-wrinkle preparation and method of reducing wrinkles in facial skin and neck” (priority 1996, dated 2002), which cites them from elsewhere.

Data set [1] has as its system rheumatoid arthritis patients. As to conditions: for EFFICACY (estimated rate) / TOXICITY (estimated rate): remittive agents in RA.
For data set [2] the following is noted: commonly prescribed NSAIDS.

On to `Cn1cnc([N+](=O)[O-])c1Sc1ncnc2nc[nH]c12` [Azathioprine], for which, in data set [1], the “EFFICACY (estimated rate)” value is “Intermediate” and the “TOXICITY (estimated rate)” value is “High”.

Take `CC(C(=O)O)c1cccc(Oc2ccccc2)c1` (centres unmarked) [Fenoprofen]: the “Half Life” value in data set [2] is 2 h.

Regarding `COc1ccc2c(c1)c(CC(=O)O)c(C)n2C(=O)c1ccc(Cl)cc1` [Indomethacin], in data set [2], the “Half Life” value was 3 to 11 h.

On to `O=C(O)Cc1ccccc1Nc1c(Cl)cccc1Cl` [Diclofenac], for which the “Half Life” value in data set [2] was 1.5 h.

Take `Cc1ccc(Cl)c(Nc2ccccc2C(=O)O)c1Cl` [Meclofenamate]: the “Half Life” value in data set [2] was 2 to 3 h.

For `CC(C)(S)[C@@H](N)C(=O)O` [Penicillamine], in data set [1], the “EFFICACY (estimated rate)” value is reported as “Intermediate” and the “TOXICITY (estimated rate)” value was “High”.

`O=P1(N(CCCl)CCCl)NCCCO1` (centres unmarked) [Cyclophosphamide]: in data set [1], the “EFFICACY (estimated rate)” value is given as “High” and the “TOXICITY (estimated rate)” value is given as “High”.

For the compound `O=C(O)CCc1nc(-c2ccccc2)c(-c2ccccc2)o1` [Oxaprozin], the “Half Life” value in data set [2] is 40 h.

As to `O=C(O)c1cc(/N=N/c2ccc(S(=O)(=O)Nc3ccccn3)cc2)ccc1O` [Sulfasalazine], in data set [1], the “EFFICACY (estimated rate)” value was “Intermediate” and the “TOXICITY (estimated rate)” value is reported as “Intermediate”.

In the case of `CN(Cc1cnc2nc(N)nc(N)c2n1)c1ccc(C(=O)N[C@@H](CCC(=O)O)C(=O)O)cc1` [Methotrexate], in data set [1] (RA patients, mostly), the onset of action was ≤ 1 month. Further, in data set [1], the “EFFICACY (estimated rate)” value was “High” and the “TOXICITY (estimated rate)” value is recorded as “Intermediate”.

With `Cc1ccc(C(=O)c2ccc(CC(=O)O)n2C)cc1` [Tolmetin], the “Half Life” value in data set [2] is 1 to 2 h.

With `CC1=C(CC(=O)O)c2cc(F)ccc2/C1=C\c1ccc([S+](C)[O-])cc1` (centres unmarked) [Sulindac], in data set [2], the “Half Life” value is 16 h.

For the compound `CN1C(C(=O)Nc2ccccn2)=C(O)c2ccccc2S1(=O)=O` [Piroxicam], the “Half Life” value in data set [2] was 30 to 86 h.

In the case of `CC(=O)OC[C@H]1O[C@@H]([S-])[C@H](OC(C)=O)[C@@H](OC(C)=O)[C@@H]1OC(C)=O.CCP(CC)CC.[Au+]` [Auranofin], in data set [1], the “EFFICACY (estimated rate)” value is recorded as “Intermediate” and the “TOXICITY (estimated rate)” value is listed as “Intermediate”.

`CCN(CCO)CCCC(C)Nc1ccnc2cc(Cl)ccc12` (centres unmarked) [Hydroxychloroquine]: in data set [1], the “EFFICACY (estimated rate)” value is given as “Intermediate” and the “TOXICITY (estimated rate)” value is reported as “Low”.
